Laboratory results: US8703812B2, “Protein synthesis required for long-term memory is induced by PKC activation on days preceding associative learning” (Blanchette Rockefeller Neurosciences Institute, priority 2005, dated 2014)
Entries after “also recorded” stand apart in the source; their conditions may differ.

What was measured:
sAPP secretion = sAPP secretion / alpha-secretase APP processing; format: cell-based; conditions: 0.1 nM bryostatin-1
calexcitin = assay: Calexcitin immunostaining in B-photoreceptors; format: in vivo, Hermissenda
Procedure: Following experimental treatments and testing, animals were rapidly decapitated, the central nervous systems (CNS) removed and then fixed in 4% para-formaldehyde in 20 mM Tris-buffered (pH 8) natural seawater (NSW; 0.2 μm micropore-filtered). The CNSs were then embedded in polyester wax (20), sectioned (6 μm) and immunostained using a biotinylated secondary antibody coupled to avidin-bound microperoxidase (ABC method, Vector), Aminoethylcarbazole (AEC) was used as the chromogen. The primary polyclonal antibody (designated 25U2) was raised in rabbits from the full length calexcitin protein extracted from squid optic lobes. Gray-scale intensity measures were done from digital photomicrographs on circumscribed cytoplasmic areas of the B-photoreceptors minus the same background area (non-staining neuropile).

[1] = cited from earlier work
PKC = assay: Protein kinase C assay in cultured hippocampal neurons; format: cell-based, Rat
Procedure: Cells were homogenized by sonication (5 sec, 25 W) in 100 μl of 10 mM Tris-HCl pH 7.4 buffer containing 1 mM EGTA, 1 mM PMSF, and 50 mM NaF. Homogenate was transferred to a polyallomer centrifuge tube and was centrifuged at 100,000×g for 10 min at 4°. The supernatant was removed and immediately frozen on dry ice. The particulate fraction was resuspended by sonication in 100 μl of the same buffer and stored at −80°. To measure PKC, 10 μl of cytosol or particulate fraction was incubated for 15 min at 37° in the presence of 10 μM histones, 4.89 mM CaCl2, 1.2 μg/μl phosphatidyl-L-serine, 0.18 μg/μl 1,2-dioctanoyl-sn-glycerol, 10 mM MgCl2, 20 mM HEPES (pH 7.4), 0-8 mM EDTA, 4 mM EGTA, 4% glycerol, 8 μg/ml aprotinin, 8 μg/ml leupeptin, and 2 mM benzamidine. 0.5 μCi [γ^32P]ATP was added and ^32P-phosphoprotein formation was measured by adsorption onto phosphocellulose as described previously (25). This assay was used with slight adjustments for either Hermissenda nervous system homogenates or cultured mammalian neuron homogenates
Rat hippocampal H19-7/IGF-IR cells (ATCC) were plated onto poly-L-lysine coated plates and grown at 35° in DMEM/10% FCS for several days until approx. 50% coverage was obtained. The cells were then induced to differentiate into a neuronal phenotype by replacing the medium with 5 ml N2 medium containing 10 ng/ml basic fibroblast growth factor and grown in T-25 flasks at 39° C. (26). Various concentrations of bryostatin (0.01-1.0 nM) were then added in 10 μl aqueous solution. After a specified interval, the medium was removed and the cells were washed with PBS, removed by gentle scraping, and collected by centrifugation at 1000 rpm for 5 min.
To further examine biochemical consequences of repeated exposures to bryostatin, rat hippocampal neurons were studied after they had been immortalized by retroviral transduction of temperature sensitive tsA5CSV40 large T antigen (25). These differentiate to have a neuronal phenotype when induced by basic fibroblast growth factor in N2 medium (26) and express a normal complement of neuronal proteins, including PKC.

Hermissenda Crassicornis = assay: Pavlovian conditioning of Hermissenda (retention of conditioned response); format: in vivo; conditions: for concentration that inhibited acquisition and behavioral retention: all training conditions tested
Procedure: Bryostatin exposure—Specimens of Hermissenda Crassicornis were maintained in artificial sea water (ASW) at 15° for three days in perforated 50-ml conical centrifuge tubes before starting experiments. Bryostatin, purified from the marine bryozoan Bugula neritina, was dissolved in EtOH and diluted to its final concentration in ASW. […] For selected experiments lactacysteine (10 μM) or anisomycin was added to the ASW.
Bryostatin effects on Hermissenda behavior and biochemistry were produced by adding the drug to the bathing medium within an 8 cm long, 1 cm diameter test tube housing each individual animal.
Pavlovian conditioning of Hermissenda involves repeated pairings of a neutral stimulus, light, with an unconditioned stimulus, orbital shaking. (See, Lederhendler et al. (24) and Epstein et al. (6)). A rotation/shaking stimulus excites the statocyst hair cells and thereby elicits an unconditioned response: a brisk contraction of the muscular undersurface called a foot, accompanied by adherence or “clinging” to the surface that supports the foot. Before conditioning, light elicits a weakly positive phototaxis accompanied by lengthening of the foot. After sufficient light-rotation pairings, light no longer elicits phototaxis, but instead elicits a new response (24): the “clinging” and foot shortening previously elicited only by the unconditional stimulus (FIG. 1). Thus, the meaning of the unconditioned stimulus, rotation or orbital shaking, has been transferred to the conditioned stimulus and is manifested by a light-elicited foot contraction—a negative change of foot length. This conditioned response to light can last for weeks, is not produced by randomized light and rotation, is stimulus-specific, and shares the other defining characteristics of mammalian Pavlovian Conditioning.
Pavlovian conditioning of Hermissenda has well-defined training parameters that produce progressively longer-lasting retention of the learned conditioned response. Two training events (2 TE) of paired light and orbital shaking (see “Methods”), for example, induce a learned conditioned response (light-elicited foot contraction or shortening) that persists without drug treatment for approximately 7 minutes. Four to six training events (4-6 TE) induce a conditioned response that persists up to several hours, but disappears approximately by 1 day after training. Nine TE produces long-term associative memory lasting many days and often up to two weeks.

[2] = single bryostatin 0.28 nM for 30 minutes

CCC/C=C/C=C/C(=O)O[C@H]1/C(=C/C(=O)OC)C[C@H]2C[C@H]([C@@H](C)O)OC(=O)C[C@H](O)C[C@@H]3C[C@H](OC(C)=O)C(C)(C)[C@](O)(C[C@@H]4C/C(=C/C(=O)OC)C[C@H](/C=C/C(C)(C)[C@]1(O)O2)O4)O3 [bryostatin, bryostatin-1]
sAPP secretion (sAPP secretion): dramatic increase of sAPP secretion
CE immunostaining (calexcitin; 24 hours after 1 bryostatin exposure for four hours, no conditioning): not elevated
CE immunostaining (calexcitin; 24 hours after 2 bryostatin exposures on two successive days, no conditioning): greater residual CE immunostaining
levels of calexcitin in B-photoreceptors (calexcitin; bryostatin alone 4-hr over each of 1, 2, and 3 days, measured 24 hours after each): progressively increased the levels of calexcitin
CE immunostaining (calexcitin; bryostatin plus 6 TE): comparable to that observed after 9 TE
calexcitin levels increase (calexcitin; paired training (6PTE) with bryostatin 0.25): greater than 4.3 ×
rise in calexcitin (CE) immuno-intensity (calexcitin; random training (4RTE) with bryostatin 0.25): 2.0
CE immunostaining (calexcitin; three 4 hour bryostatin exposures, 2 TE on subsequent day, 24 hours later): approached the levels previously observed immediately following 9 TE
calexcitin level (calexcitin; two 4-hr bryostatin exposures (0.25 ng/ml) on successive days, then 2-paired TEs): significantly increased calexcitin to levels associated with 9-paired TEs; also recorded: raise calexcitin levels to the amount associated with consolidated long-term memory
tolerability ([1]; 20 μg/m^2 once per week for 3 weeks): well tolerated and were not associated with myalgia or other side effects
maximum-tolerated dose ([1]; 1 hour i.v. infusion once every 2 weeks for 6 weeks): 50 μg/m^2
maximum tolerated dose ([1]; once per week for 8 weeks): 25 μg/m^2
myalgia reported, of all treated patients ([1]; phase II clinical trials): 10 to 87%
cytosolic PKC activity (PKC; first 4 hours after single bryostatin exposure): no significant alteration; also recorded: not altered
effect of second exposure on downregulation of membrane-bound PKC (PKC; second 30-minute exposure after 2- to 4-hour delay): eliminated the significant downregulation; also recorded: significantly attenuates the downregulation
cytosolic PKC activity (PKC; second bryostatin exposure delayed until 4 hours after the first): increased above baseline
cytosolic PKC activity (PKC; second bryostatin exposure within 2 hr of the first): significant reduction of PKC activity
membrane-bound PKC after brief translocation (PKC; [2]): prolonged downregulation
translocation of PKC from cytosol to particulate fraction (PKC; [2]): approx 60%
retention (Hermissenda Crassicornis; 2-TEs with two bryostatin exposures): more than one week
retention of behavioral conditioning tested after 4 h (Hermissenda Crassicornis; 2-paired TEs, bryostatin 0.25 ng/ml from 10-min dark adaptation and 4 h thereafter): demonstrated retention of the behavioral conditioning
memory retention (Hermissenda Crassicornis; 2 TE plus bryostatin, 4 hours during and after training): lasting hours; also recorded: several hours
memory retention (Hermissenda Crassicornis; 4 TEs plus bryostatin): > 24 h
memory duration (Hermissenda Crassicornis; 6 TE with bryostatin (only hours without)): many days
memory retention (Hermissenda Crassicornis; 4 hour bryostatin on the day preceding training and on the day of 2 TE): more than one day
retention (Hermissenda Crassicornis; 20 h pre-exposure to bryostatin 0.25 ng/ml, 4-paired TE): persisted
retention (Hermissenda Crassicornis; 20 hr bryostatin 0.25 ng/ml exposure, 2-paired TE): ≤ 48 h
low doses that markedly enhanced memory (Hermissenda Crassicornis; after 2, 4, or 6 training trials): 0.1 to 0.25 ng/mL
concentration that inhibited acquisition and behavioral retention (Hermissenda Crassicornis): greater than 1.0 ng/ml
concentration that inhibited acquisition and behavioral retention (Hermissenda Crassicornis; listed as Bryostatin): ≥ 1.0 ng/mL
conditioned response (foot contraction) tested at 4 h (Hermissenda Crassicornis; bryostatin 0.25 ng/ml before 6-TE conditioning and 4 hours thereafter): produced a positive CR
effect on retention performance (Hermissenda Crassicornis; bryostatin <0.50 ng/ml, 9-paired TEs): no demonstrable effects on retention performance
memory retention versus 4 hour exposures (Hermissenda Crassicornis; bryostatin exposure for 8 to 20 hours followed by 2 TE): not sufficient
behavioral retention lost after (Hermissenda Crassicornis; bryostatin only 4 h, 2-paired TEs 24 hrs later): ≤ 24 h
conditioned response (Hermissenda Crassicornis; randomized presentations of light and rotation, with bryostatin): produced no conditioned response
long-term retention (tested with CS alone at 4 h, then 24-h intervals) (Hermissenda Crassicornis; sub-optimal 4- and 6-paired TEs, bryostatin 0.25 ng/ml from dark adaptation and for 4 hours): all demonstrated long-term retention
concentrations that augment acquisition and memory retention (Hermissenda Crassicornis; sub-optimal (4 TE) training): < 0.50 ng/mL
long-term retention (LTR) post-training (Hermissenda Crassicornis; three successive days of 4-h bryostatin 0.25 ng/ml, one day later 2-TEs): ≥ 96 h
long-term retention (Hermissenda Crassicornis; two successive days of 4-h bryostatin 0.25 ng/ml, 2-paired TEs): at least 6 days
